Data: patent US10919935B2, “Antimicrobial peptide derived from myxinidin peptide and uses thereof” (INDUSTRY-ACADEMIC COOPERATION FOUNDATION, CHOSUN UNIVERSITY, priority 2015, dated 2021)
Residues, ends and D or L forms follow the SMILES beside them.

Key:
Assay type in all cases: cell-based
in vitro = settings: human, NHK cells (normal human keratinocytes)
Experimental: To determine the cytotoxicity of the peptide produced by the method of Example 1 in normal cell line, toxicity was measured by using NHK cells (Normal Human Keratinocyte cells).
Specifically, NHK cells which have been cultured in Epilife medium with 60 μM calcium (Gibco, USA) containing 10% HKGS (Human Keratinocyte Growth Supplement) (Gibco, USA) were aliquoted in a 96-well plate to have 1×10^4 cells per well. After culturing them for 24 hours, the cells were subjected to a treatment with myxinidin, myxinidin 1, myxinidin 2, or myxinidin 3 peptide, each at concentration of 3.125, 6.25, 12.5, or 25.0 μM/well, followed by reaction for 24 hours in a 5% CO2 incubator. After the culture, a reaction solution containing 5 mg/ml MTT (Thiazolyl Blue Tetrazolium Bromide) dissolved in physiological saline (PBS) was added in an amount of 20 μl to each well and allowed to react for 4 hours. After that, the supernatant was removed, and, by dissolving MTT crystals that are formed by adding 200 μl of DMSO, the absorbance at 560 nm was measured to determine the cell survival ability.

[1] = tested on: Listeria monocytogenes KCTC 3710
Experimental: (§1) To compare the antimicrobial activity of the peptide produced by the method of Example 1, the inventors of the present invention measured the growth minimum inhibitory concentration (MIC), which is minimum concentration of the peptide showing no dissociation of bacterial cells.
(§2) Specifically, the bacterial strain described in the following Table 2 was purchased and cultured in each medium to a mid-log phase. Then, after dilution to bacterial cell concentration of 2×10^5 cells/100 μl, the cells were inoculated to a microtiter plate (NUNC, USA). Thereafter, myxinidin 1, myxinidin 2, or myxinidin 3 peptides which have been synthesized in Example 1 above was diluted, 1/2 times for each, with BSA (bovine serum albumin) solution in a 96-well plate. After adding the cells to a plate, the cells were cultured for 12 hours at 37° C. By using a microtiter plate reader (Merck Elisa reader, Germany), the absorbance was measured at a wavelength of 600 nm to determine the MIC value of each bacterial strain. As a control group, myxinidin as a mother peptide was subjected to the same processes as above and the MIC value of each bacterial strain was obtained.

[2] = tested on: Staphylococcus aureus CCARM 3114
Experimental: as §1, §2

[3] = tested on: Salmonella typhimurium KCTC 1926
Experimental: as §1, §2

[4] = tested on: Escherichia coli CCARM 1238
Experimental: as §1, §2

[5] = tested on: Escherichia coli CCARM 1229
Experimental: as §1, §2

[6] = tested on: Pseudomonas aeruginosa Isolated strain 5018
Experimental: as §1, §2

[7] = tested on: Pseudomonas aeruginosa ATCC 27853
Experimental: as §1, §2

[8] = tested on: Staphylococcus aureus CCARM 3709
Experimental: as §1, §2

[9] = tested on: Salmonella typhimurium CCARM 8009
Experimental: as §1, §2

[10] = tested on: Staphylococcus aureus ATCC 25923
Experimental: as §1, §2

[11] = tested on: Pseudomonas aeruginosa Isolated strain 3592
Experimental: as §1, §2

[12] = tested on: Escherichia coli ATCC 25922
Experimental: as §1, §2

[13] = tested on: Salmonella typhimurium CCARM 8013
Experimental: as §1, §2

Compound: CC[C@H](C)[C@H](NC(=O)CN)C(=O)N[C@@H](Cc1c[nH]cn1)C(=O)N[C@@H](CC(=O)O)C(=O)N[C@H](C(=O)N[C@@H](CC(C)C)C(=O)N[C@@H](CCCCN)C(=O)N[C@@H](Cc1ccc(O)cc1)C(=O)NCC(=O)N[C@@H](CCCCN)C(=O)N1CCC[C@H]1C(=O)N[C@@H](CO)C(N)=O)[C@@H](C)CC [Myxinidin, GIHDILKYGKPS-NH2] (H-GIHDILKYGKPS-NH2)
- viability at 24 h, 3.125 µM (in vitro): 100%
- viability at 24 h, 6.25 µM (in vitro): 98%
- viability at 24 h, 12.5 µM (in vitro): 98%
- viability at 24 h, 25 µM (in vitro): 95%
- Minimum growth inhibitory concentration [1]: >32 µM
- Minimum growth inhibitory concentration [2]: >32 µM
- Minimum growth inhibitory concentration [3]: >32 µM
- Minimum growth inhibitory concentration [4]: >32 µM
- Minimum growth inhibitory concentration [5]: >32 µM
- Minimum growth inhibitory concentration [6]: >32 µM
- Minimum growth inhibitory concentration [7]: >32 µM
- Minimum growth inhibitory concentration [8]: >32 µM
- Minimum growth inhibitory concentration [9]: >32 µM
- Minimum growth inhibitory concentration [10]: >32 µM
- Minimum growth inhibitory concentration [11]: >32 µM
- Minimum growth inhibitory concentration [12]: >32 µM
- Minimum growth inhibitory concentration [13]: >32 µM
